This is an account of results in patent US20180362598A1 (priority 2016, published 2018).

The assay relates to insect gut protease (X condition). It is filed as biochemical.

Regarding LFVRLRGS, the “% of Max Slope X” value is recorded as 94%.

For LRLFVGS, the “% of Max Slope X” value turned out to be 74%.

Regarding IFVALKGS, the “% of Max Slope X” value came out at 69%.

As to LKLFVGS, the “% of Max Slope X” value was determined as 98%.

Take LFVALKGS: the “% of Max Slope X” value is given as 92%.
